Series [1] concerns the target T1, β-kinase domain of the human insulin receptor (CKD) (Homo sapiens, UniProt P06213).
T1 construct: The complete β-kinase domain of the human insulin receptor (CKD) was expressed in, and purified from, baculovirus; made in house
The series can be described thus: 32P-cytoplasmic kinase domain (CKD) autophosphorylation assay. It counts as biochemical. The conditions noted are these: phosphorylation of CKD expressed as % of the vehicle level; 10 minutes at room temperature; compound concentration not given. Summed up: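 Baculovirus-expressed CKD (4.0 μg/ml) in 29 mM HEPES pH 7.6, 10 mM MgCl2, 2 mM MnCl2 with 50 μM ATP plus ^32P-ATP, 1% DMSO, 10 min at room temperature. EDTA stop, SDS-PAGE, CKD-band radioactivity by phosphorimaging or scintillation counting; activity as % of vehicle phosphorylation.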

Series [2] has as its system GLUT4 in 3T3 L1 adipocytes. Put plainly: Immunofluorescence analysis of GLUT4 mobilization. The conditions noted are these: 56 μM Compound 15 alone, 1 hr at 37° C. (FIG. 6C). Format: cell-based. The protocol: Immunofluorescence Analysis of GLUT4 Mobilization in 3T3 L1 Adipocytes Insulin-dependent transport of glucose into cells utilizes glucose transporter proteins, such as GLUT4. Stimulation with insulin causes these transporters to translocate from storage sites within the cell to the cell membrane, where they facilitate glucose entry. 3T3 L1 adipocytes were grown and differentiated as in Example 11, except that they were grown on a microscope chamber slide. The cells were serum-starved with 0.1% BSA in DMEM for 16 hrs and stimulated with 56 μM Compound 15 alone, 100 nM Insulin for 1 hr at 37° C. The cells were fixed with 3.5% paraformaldehyde for 5 min and permeabilized with 0.2% saponin in 1% BSA, TBS for 5 min followed by incubation with anti-GLUT4 antibody for 30 min at room temperature. The cells were extensively washed and incubated with FITC-conjugated secondary antibody for 30 min at room temperature.

For series [3], the system named is platelet-derived growth factor (PDGF) receptor. Put plainly: Selectivity: PDGF receptor phosphorylation. It counts as cell-based. The conditions noted are these: in the absence or presence of PDGF.
In a further series the test system is ob/ob mouse. The series can be described thus: Blood glucose, insulin and triglycerides in the ob/ob mouse model of Type 2 diabetes. The conditions noted are these: ob/ob mice, single dose 30 mg/kg, p.o. It counts as in vivo. As for the experimental part: Lowering of Blood Glucose, Insulin and Triglycerides in the ob/ob Mouse Model of Type 2 Diabetes Another standard model of Type 2 diabetes is the ob/ob mouse. Male ob/ob mice (C57 BL/6J-ob) were housed 3–5 to a cage with free access to standard rodent chow pellets. After one week, they were given a single dose of Compound 15 (30 mg/kg, p.o.). Compound 15 produced a 13% decrease in blood glucose levels, a 42% decrease in plasma insulin levels, and a 15% decrease in plasma triglyceride levels. The concomitant reduction of plasma glucose and insulin levels are consistent with a reduction in insulin resistance.

Another series addresses T2, insulin receptor (Rattus norvegicus, UniProt P15127).
T2 construct: from tissue; host or cells: rat muscle (in vivo oral dosing)
Put plainly: Rat muscle insulin receptor phosphorylation after oral dose. It counts as in vivo. The conditions noted are these: STZ/HFD rats, oral dose 30 mg/kg, muscle samples 0.5-6 hr (FIG. 12). The protocol:
Rat Muscle Phosphorylation
Muscle is a particularly important tissue for taking up glucose from the blood in response to insulin receptor stimulation. Activation of muscle insulin receptors is, therefore, an important factor in the control of blood glucose levels. STZ/HFD rats prepared as in Example 18 were given an oral dose of Compound 15 (30 mg/kg), and muscle samples were harvested at different time points (0.5 hr, 1 hr, 2 hr, 3 hr, 4 hr, 6 hr) and homogenized in extraction buffer (50 mM Tris.HCl pH 7.4, 150 mM NaCl, 0.25% sodium deoxycholate, 1% NP40, 1 mM EGTA, 1 mM PMSF, 1 mM Na3VO4, 1 mM NaF, 1 ug/ml each of Aprotinin, Leupeptin and Pepstatin). The tissue homogenate was centrifuged at 12K for 30 min at 4° C., and the supernatants were saved. An equal protein amount from each sample was immunoprecipitated with anti-insulin receptor antibody for 2 hr at 4° C., followed by another 1 hr incubation with Protein G-Agarose beads. The immunecomplexes were washed three times with the extraction buffer, and the samples were boiled in 2× SDS-PAGE loading buffer for 5 min at 100° C. The samples were resolved in a 7.5% SDS-PAGE along with Amersham rainbow marker protein as a molecular weight standard. […]

The test system of a further series is male db/db mice. Put plainly: Acute toxicity in db/db mice. Format: in vivo. The conditions noted are these: i.p., 300 mg/kg in PBS. As for the experimental part: (§1) Compound 15 was administered in PBS vehicle to male db/db mice (i.p.) and male CD rats (p.o.) at 300 mg/kg, which is approximately 10 times its effective dose.
Another series relates to male CD rats. The series can be described thus: Acute toxicity in CD rats. It counts as in vivo. The conditions noted are these: p.o., 300 mg/kg in PBS. As for the experimental part:
as §1

A short description of series [4]: Distribution of compound-[14C]-15 after oral administration. It counts as in vivo, rat. The conditions noted are these: STZ/HFD rats, single oral dose 30 mg/kg 14C-labeled, two hours later. As for the experimental part:
Distribution of Compound-[14C]-15 After Oral Administration
STZ/HFD rats, prepared as in Example 19, were given a single oral dose of 30 mg/kg compound-[14C]-15 labeled with 50 μCi of 14C prepared as in Example 11A. Two hours later the animals were euthanized and 200 mg samples of various tissues were removed by an IACUC-approved protocol. The tissue samples were homogenized and their radioactivity content was measured by scintillation counting. The highest levels of radioactivity were found in the pancreas, liver, and thigh muscle. These corresponded to Compound 15 concentrations of approximately 780 nM, 200 nM, and 175 nM, respectively. These concentrations would be sufficient to produce insulin receptor phosphorylation in vitro. Lower levels of radioactivity indicative of 50 nM to 100 nM concentrations of the compound were found in abdominal muscle, fat, kidney, and spleen.

We go through one compound from patent US7071231B2, “Naphthalene ureas as glucose uptake enhancers” (Telik, Inc., priority 1999, dated 2006).

T1 sequence (P06213 980-1382 limits assumed): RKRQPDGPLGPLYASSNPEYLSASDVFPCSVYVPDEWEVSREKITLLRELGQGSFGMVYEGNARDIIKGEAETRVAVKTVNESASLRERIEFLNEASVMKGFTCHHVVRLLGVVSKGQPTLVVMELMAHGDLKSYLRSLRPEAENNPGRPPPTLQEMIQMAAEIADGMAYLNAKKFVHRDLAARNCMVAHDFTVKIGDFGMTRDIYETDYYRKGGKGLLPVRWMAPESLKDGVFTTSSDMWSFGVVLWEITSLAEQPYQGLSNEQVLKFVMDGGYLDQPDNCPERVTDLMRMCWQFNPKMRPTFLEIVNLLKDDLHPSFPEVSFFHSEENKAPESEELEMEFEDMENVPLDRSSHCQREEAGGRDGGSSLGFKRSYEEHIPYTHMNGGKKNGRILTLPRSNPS
T2 sequence (P15127 764-1383 limits assumed): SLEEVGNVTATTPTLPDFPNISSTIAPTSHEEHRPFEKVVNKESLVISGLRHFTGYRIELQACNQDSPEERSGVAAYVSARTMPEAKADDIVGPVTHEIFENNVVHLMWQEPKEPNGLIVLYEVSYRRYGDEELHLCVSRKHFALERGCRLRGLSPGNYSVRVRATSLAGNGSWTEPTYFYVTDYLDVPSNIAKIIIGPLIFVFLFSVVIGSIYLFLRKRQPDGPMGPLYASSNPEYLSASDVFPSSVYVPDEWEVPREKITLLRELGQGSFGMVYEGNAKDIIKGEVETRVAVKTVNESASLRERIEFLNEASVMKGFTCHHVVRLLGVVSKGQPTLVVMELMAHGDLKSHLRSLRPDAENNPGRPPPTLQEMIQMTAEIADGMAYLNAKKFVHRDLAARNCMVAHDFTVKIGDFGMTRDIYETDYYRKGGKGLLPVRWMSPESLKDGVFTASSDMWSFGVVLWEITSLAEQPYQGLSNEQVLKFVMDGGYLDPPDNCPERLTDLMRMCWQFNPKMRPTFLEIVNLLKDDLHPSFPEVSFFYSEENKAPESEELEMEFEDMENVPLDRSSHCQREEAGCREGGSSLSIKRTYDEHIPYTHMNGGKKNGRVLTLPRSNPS
T2 sequence (P15127 27-759 partner limits assumed): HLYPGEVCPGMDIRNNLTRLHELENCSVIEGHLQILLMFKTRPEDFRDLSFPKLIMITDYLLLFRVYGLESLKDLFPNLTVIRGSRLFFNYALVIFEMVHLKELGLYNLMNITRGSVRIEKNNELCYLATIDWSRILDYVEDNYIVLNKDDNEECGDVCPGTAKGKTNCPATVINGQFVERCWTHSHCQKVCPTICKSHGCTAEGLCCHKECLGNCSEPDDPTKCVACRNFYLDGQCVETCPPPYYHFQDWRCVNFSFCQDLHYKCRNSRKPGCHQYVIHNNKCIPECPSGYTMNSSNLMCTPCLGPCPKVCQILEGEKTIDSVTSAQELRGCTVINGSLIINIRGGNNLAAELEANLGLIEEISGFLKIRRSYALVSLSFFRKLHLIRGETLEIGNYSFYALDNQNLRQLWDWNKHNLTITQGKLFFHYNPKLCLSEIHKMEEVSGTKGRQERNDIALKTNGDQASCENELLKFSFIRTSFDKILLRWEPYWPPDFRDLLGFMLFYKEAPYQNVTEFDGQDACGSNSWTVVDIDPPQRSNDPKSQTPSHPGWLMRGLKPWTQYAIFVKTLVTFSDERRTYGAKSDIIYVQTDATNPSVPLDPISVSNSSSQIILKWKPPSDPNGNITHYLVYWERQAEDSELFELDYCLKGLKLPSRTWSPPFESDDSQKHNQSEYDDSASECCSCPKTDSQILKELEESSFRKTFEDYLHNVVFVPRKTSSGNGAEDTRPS

For the compound `O=C(Nc1ccc2c(O)cc(S(=O)(=O)Nc3cccc(S(=O)(=O)O)c3)cc2c1)Nc1ccc2c(O)cc(S(=O)(=O)Nc3cccc(S(=O)(=O)O)c3)cc2c1` [Compound 15, 3-{[(4-hydroxy-7-{[N-(5-hydroxy-7-{[(3-sulfophenyl)amino]sulfonyl}(2-naphthyl))carbamoyl]amino}-2-naphthyl)sulfonyl]amino}benzenesulfonic acid], the “% Activity vs. Control” value in series [1] is reported as 125%. Moreover, in series [2], the “GLUT4 translocation (immunofluorescence)” value is “produced apparent translocation of GLUT4 to the cell surface”. Further, the “phosphorylation of the PDGF receptor” value in series [3] is given as “not to increase the phosphorylation”. Besides, in the series on ob/ob mouse, the “decrease in blood glucose levels” value came to 13%, the “decrease in plasma insulin levels” value is on record as 42% and the “decrease in plasma triglyceride levels” value worked out at 15%. Also, the “phosphorylation of the insulin receptor in muscle” value at insulin receptor is listed as “produced an increase in phosphorylation of the insulin receptor”. The acute toxicity entry in the series on male db/db mice is “No acute toxicity was seen”. The acute toxicity result in the series on male CD rats is “No acute toxicity was seen”. Besides, in series [4], the “amount of radioactivity in the blood” value is “not above background levels”; the “tissue concentration, liver” value is reported as ~200 nM; the “tissue concentration, pancreas” value is on record as “approximately 780 nM”; the “tissue concentration, thigh muscle” value is ~175 nM.
